{
  "source": "patent US6046182A",
  "about": "“Steroid carbamates as potentiating agents” (Satish BATRA, priority 1996, dated 2000)",
  "key": {"HCT-15 cells": {"tested_on": "HCT-15 cells", "assay": "In vivo HCT-15 subcutaneous xenograft in SCID mice, doxorubicin alone or plus compound 1:1", "design": "Significance (p) of difference in tumor growth between (1) vehicle and (2) doxorubicin, symbol * / Significance (p) of difference in tumor growth between (1) vehicle and (2) doxorubicin, symbol ***: dose or concentration left out as unconfirmed", "details": "days 9, 13, 17"}, "AT-1": {"tested_on": "AT-1", "assay": "Potentiation of daunorubicin (30 nM) in rat prostatic tumor cells AT-1 (cell survival, Coulter counter)", "type": "cell-based"}, "HCT-15": {"tested_on": "HCT-15", "assay": "Potentiation of daunorubicin (50 nM) in human colon tumor cells HCT-15 (cell survival, Coulter counter)", "type": "cell-based", "details": "HCT-15, read-out: IC50, HCT-15 (concentration required to reduce cell survival by 50%)"}, "tumors": {"tested_on": "tumors", "details": "animal models; cited from earlier work"}, "[1]": {"details": "cited from earlier work"}, "[2]": {"details": "with daunorubicin 30 nM, 24 h, then 96 h drug free, AT-1, read-out: IC50, AT-1 (concentration required to reduce cell survival by 50%)"}},
  "note": "Where two headings read alike, the source gives them in different places.",
  "data": [
    {"smiles": "COc1cccc2c1C(=O)c1c(O)c3c(c(O)c1C2=O)C[C@@](O)(C(=O)CO)C[C@@H]3O[C@H]1C[C@H](N)[C@H](O)[C@H](C)O1", "note": "[doxorubicin]", "values": [
      {"measurement": "Significance (p) of difference in tumor growth between (1) vehicle and (2) doxorubicin, symbol *", "setting": "HCT-15 cells; doxorubicin i.v., symbol *", "value": "< 0.05"},
      {"measurement": "Significance (p) of difference in tumor growth between (1) vehicle and (2) doxorubicin, symbol ***", "setting": "HCT-15 cells; doxorubicin i.v., symbol ***", "value": "< 0.005"}
    ]},
    {"smiles": "CCCCN(CCCC)CCCNC(=O)OC1CC[C@@]2(C)C(=CC[C@H]3[C@@H]4CC[C@H](C(C)=O)[C@@]4(C)CC[C@@H]32)C1", "note": "(stereo partly shown) [1:4, pregn-5-ene-20-one-3-yl, N-(3-dibutylamino-propyl)-carbamate]", "values": [
      {"measurement": "IC50", "setting": "AT-1; [2]", "value": 190, "unit": "nM"}
    ]},
    {"smiles": "CC12CCC3c4ccc(OC(=O)N(CCCl)CCCl)cc4CCC3C1CCC2O", "note": "(stereo not shown) [estramustine]", "values": [
      {"measurement": "IC50", "setting": "HCT-15", "value": "> 2500", "unit": "nM"},
      {"measurement": "Potentiation of radiation effects on tumors", "setting": "tumors", "value": "potentiate radiation effects on tumors"}
    ]},
    {"smiles": "COc1ccc(CCN(C)CCCC2(c3ccc4ccccc4c3)SCCCS2)cc1OC", "note": "[RO 11-2933]", "values": [
      {"measurement": "In vivo activity in combination with doxorubicin", "setting": "[1]", "value": "in vivo activity"}
    ]},
    {"smiles": "CC(=O)[C@H]1CC[C@H]2[C@@H]3CCC4=CC(=O)CC[C@]4(C)[C@H]3C(OC(=O)N(Cc3ccccc3)Cc3ccccc3)C[C@]12C", "note": "(stereo partly shown) [1:35, pregn-4-ene-3,20-dione-11-yl, N,N-dibenzyl-carbamate]", "values": [
      {"measurement": "IC50", "setting": "AT-1; [2]", "value": 150, "unit": "nM"}
    ]},
    {"smiles": "CCCCN(CCCC)CCCNC(=O)OC(C)[C@H]1CC[C@H]2[C@@H]3CCC4=CC(=O)CC[C@]4(C)[C@H]3CC[C@]12C", "note": "(stereo partly shown) [1:13, pregn-4-ene-3-one-20-yl, N-(3-dibutylamino-propyl)-carbamate]", "values": [
      {"measurement": "IC50", "setting": "AT-1; [2]", "value": 210, "unit": "nM"}
    ]},
    {"smiles": "COc1ccc(CCN(C)CCCC(C#N)(c2ccc(OC)c(OC)c2)C(C)C)cc1OC", "note": "(stereo not shown) [verapamil]", "values": [
      {"measurement": "IC50", "setting": "HCT-15", "value": 500, "unit": "nM"},
      {"measurement": "IC50", "setting": "AT-1; read-out: IC50, AT-1 (concentration required to reduce cell survival by 50%)", "value": 740, "unit": "nM"}
    ]},
    {"smiles": "CCCCN(CCCC)C(=O)OC1C[C@]2(C)[C@@H](C(C)=O)CC[C@H]2[C@@H]2CCC3=CC(=O)CC[C@]3(C)[C@@H]12", "note": "(stereo partly shown) [Compound 1:1, pregn-4-ene-3,20-dione-11-yl, N,N-dibutylcarbamate]", "values": [
      {"measurement": "IC50", "setting": "HCT-15; with daunorubicin 50 nM, 24 h, then 96 h drug free", "value": 510, "unit": "nM"},
      {"measurement": "Potentiating effect in vivo", "setting": "HCT-15 cells; compound 1:1 400 mg/kg p.o. 2 hours before doxorubicin i.v.", "value": "potentiating effect"},
      {"measurement": "IC50", "setting": "AT-1; [2]", "value": 760, "unit": "nM"}
    ]}
  ]
}
